EC50 data for 54 compounds are collected here from patent US11472808B2, “Substituted pyrrolo[1,2-c]pyrimidines as hepatitis B antiviral agents” (Enanta Pharmaceuticals, Inc., priority 2019, dated 2022).

As usually defined, the EC50 is the midpoint of the concentration-response curve.

In the first assay the test system is HBV. As to the kind of experiment: HepAD38 anti-HBV assay: reduction of viral product accumulation (virion DNA qPCR, HBsAg/HBeAg ELISA). The settings on record: Hepatitis B virus, 120 h; HepAD38 cells; concentration reducing viral product accumulation by 50% relative to no drug controls; harvest five days after compound addition; read-out: HepAD38 EC50. It is filed as cell-based. Summed up:
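EC50 values reflect 50% reduction, relative to untreated controls, in virion DNA (qPCR) or HBsAg/HBeAg (ELISA) from lysates or supernatants. Washed HepAD38 cells without tetracycline were exposed to compound for 5 days. In the 8-day variant, medium and compound were renewed on days 2 and 5.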
(In general: Quantitative PCR measures a nucleic acid by following its amplification.)
For the compound `COC(=O)c1cccc(S(=O)(=O)NCC2(F)CC3=C(c4ccn(C(F)F)n4)[C@H](c4ccc(F)cc4Cl)N=C(c4nccs4)N3C2)c1` (stereo partly drawn) [Example 190], the EC50 is more than 0.4 µM.

Consider `COC(=O)c1ccc(S(=O)(=O)NCC2(F)CC3=C(c4ccn(C(F)F)n4)[C@H](c4ccc(F)cc4Cl)N=C(c4nccs4)N3C2)cc1` (stereo partly drawn) [Example 191], for which the EC50 is more than 0.4 µM.

Take `O=C(O)c1ccc(S(=O)(=O)NCC2(F)CC3=C(c4ccn(C(F)F)n4)[C@H](c4ccc(F)cc4Cl)N=C(c4nccs4)N3C2)cc1` (stereo partly drawn) [Example 192]: the EC50 was more than 0.4 µM.

Regarding `N#CC[C@]1(F)CC2=C(c3ccn(C(F)F)n3)[C@H](c3ccc(F)cc3Cl)N=C(c3nccs3)N2C1` [Example 193], the EC50 was more than 0.4 µM.

As for `N#CC[C@@]1(F)CC2=C(c3ccn(C(F)F)n3)[C@H](c3ccc(F)cc3Cl)N=C(c3nccs3)N2C1` [Example 194], the EC50 is 0.1 to 0.4 µM.

Regarding `O=S(=O)(C[C@]1(F)CC2=C(c3ccn(C(F)F)n3)[C@H](c3ccc(F)cc3Cl)N=C(c3nccs3)N2C1)c1ccccc1` [Example 195], the EC50 was less than 0.1 µM.

Regarding `O=S(=O)(C[C@@]1(F)CC2=C(c3ccn(C(F)F)n3)[C@H](c3ccc(F)cc3Cl)N=C(c3nccs3)N2C1)c1ccccc1` [Example 196], the EC50 was in the range of 0.1 to 0.4 µM.

On to `CCC(=O)N[C@H]1CC2=C(c3ccn(C(F)F)n3)[C@H](c3ccc(F)cc3Cl)N=C(c3nccs3)N2C1` [Example 197], for which the EC50 lay within 0.1 to 0.4 µM.

Consider `COC(=O)N[C@H]1CC2=C(c3ccn(C(F)F)n3)[C@H](c3ccc(F)cc3Cl)N=C(c3nccs3)N2C1` [Example 198], for which the EC50 is less than 0.1 µM.

Regarding `CNC(=O)N[C@H]1CC2=C(c3ccn(C(F)F)n3)[C@H](c3ccc(F)cc3Cl)N=C(c3nccs3)N2C1` [Example 199], the EC50 lay within 0.1 to 0.4 µM.

As for `CCOC(=O)N[C@H]1CC2=C(c3ccn(C(F)F)n3)[C@H](c3ccc(F)cc3Cl)N=C(c3nccs3)N2C1` [Example 201], the EC50 was less than 0.1 µM.

For the compound `CC(C)OC(=O)N[C@H]1CC2=C(c3ccn(C(F)F)n3)[C@H](c3ccc(F)cc3Cl)N=C(c3nccs3)N2C1` [Example 202], the EC50 is less than 0.1 µM.

`CCNC(=O)N[C@H]1CC2=C(c3ccn(C(F)F)n3)[C@H](c3ccc(F)cc3Cl)N=C(c3nccs3)N2C1` [Example 203]: the EC50 is less than 0.1 µM.

As to `CC(C)NC(=O)N[C@H]1CC2=C(c3ccn(C(F)F)n3)[C@H](c3ccc(F)cc3Cl)N=C(c3nccs3)N2C1` [Example 204], the EC50 is less than 0.1 µM.

On to `O=C(NC1CC1)N[C@H]1CC2=C(c3ccn(C(F)F)n3)[C@H](c3ccc(F)cc3Cl)N=C(c3nccs3)N2C1` [Example 205], for which the EC50 was less than 0.1 µM.

For the compound `O=C(N[C@H]1CC2=C(c3ccn(C(F)F)n3)[C@H](c3ccc(F)cc3Cl)N=C(c3nccs3)N2C1)N1CCCCC1` [Example 206], the EC50 lay in the range of 0.1 to 0.4 µM.

On to `O=C(N[C@H]1CC2=C(c3ccn(C(F)F)n3)[C@H](c3ccc(F)cc3Cl)N=C(c3nccs3)N2C1)N1CCOCC1` [Example 207], for which the EC50 was less than 0.1 µM.

On to `O=C(N[C@H]1CC2=C(c3ccn(C(F)F)n3)[C@H](c3ccc(F)cc3Cl)N=C(c3nccs3)N2C1)N1CCC(O)CC1` [Example 208], for which the EC50 is less than 0.1 µM.

For `O=C(N[C@H]1CC2=C(c3ccn(C(F)F)n3)[C@H](c3ccc(F)cc3Cl)N=C(c3nccs3)N2C1)N1CCCC1` [Example 209], the EC50 was less than 0.1 µM.

With `O=C(N[C@H]1CC2=C(c3ccn(C(F)F)n3)[C@H](c3ccc(F)cc3Cl)N=C(c3nccs3)N2C1)N1CCC1` [Example 210], the EC50 is less than 0.1 µM.

As to `COC(=O)C1CCN(C(=O)N[C@H]2CC3=C(c4ccn(C(F)F)n4)[C@H](c4ccc(F)cc4Cl)N=C(c4nccs4)N3C2)CC1` [Example 211], the EC50 was in the range of 0.1 to 0.4 µM.

`O=C(O)C1CCN(C(=O)N[C@H]2CC3=C(c4ccn(C(F)F)n4)[C@H](c4ccc(F)cc4Cl)N=C(c4nccs4)N3C2)CC1` [Example 212]: the EC50 lay within 0.1 to 0.4 µM.

In the case of `O=C(N[C@H]1CC2=C(c3ccn(C(F)F)n3)[C@H](c3ccc(F)cc3Cl)N=C(c3nccs3)N2C1)N1CCC(CO)CC1` [Example 216], the concentration for a half-maximal effect (EC50) was 0.1 to 0.4 µM.

For `O=C(NCc1ccccn1)N[C@H]1CC2=C(c3ccn(C(F)F)n3)[C@H](c3ccc(F)cc3Cl)N=C(c3nccs3)N2C1` [Example 217], the EC50 is more than 0.4 µM.

As to `O=C(NCC(O)c1ccccn1)N[C@H]1CC2=C(c3ccn(C(F)F)n3)[C@H](c3ccc(F)cc3Cl)N=C(c3nccs3)N2C1` (stereo partly drawn) [Example 218], the EC50 is more than 0.4 µM.

For `O=C(N[C@H]1CC2=C(c3ccn(C(F)F)n3)[C@H](c3ccc(F)cc3Cl)N=C(c3nccs3)N2C1)N1CCS(=O)(=O)CC1` [Example 219], the EC50 was 0.1 to 0.4 µM.

Consider `CC(C)(C)OC(=O)N1CCN(C(=O)N[C@H]2CC3=C(c4ccn(C(F)F)n4)[C@H](c4ccc(F)cc4Cl)N=C(c4nccs4)N3C2)CC1` [Example 220], for which the EC50 is more than 0.4 µM.

With `COC(=O)N1CCN(C(=O)N[C@H]2CC3=C(c4ccn(C(F)F)n4)[C@H](c4ccc(F)cc4Cl)N=C(c4nccs4)N3C2)CC1` [Example 221], the EC50 lay in the range of 0.1 to 0.4 µM.

On to `CS(=O)(=O)N1CCN(C(=O)N[C@H]2CC3=C(c4ccn(C(F)F)n4)[C@H](c4ccc(F)cc4Cl)N=C(c4nccs4)N3C2)CC1` [Example 222], for which the EC50 lay within 0.1 to 0.4 µM.

Take `O=C(N[C@H]1CC2=C(c3ccn(C(F)F)n3)[C@H](c3ccc(F)cc3Cl)N=C(c3nccs3)N2C1)N1CCC[C@@H](O)C1` [Example 223]: the EC50 was in the range of 0.1 to 0.4 µM.

On to `O=C(N[C@H]1CC2=C(c3ccn(C(F)F)n3)[C@H](c3ccc(F)cc3Cl)N=C(c3nccs3)N2C1)N1CC[C@H](O)C1` [Example 224], for which the EC50 was less than 0.1 µM.

In the case of `O=C(N[C@H]1CC2=C(c3ccn(C(F)F)n3)[C@H](c3ccc(F)cc3Cl)N=C(c3nccs3)N2C1)N1CC[C@@H](O)C1` [Example 225], the EC50 is less than 0.1 µM.

On to `O=C(N[C@H]1CC2=C(c3ccn(C(F)F)n3)[C@H](c3ccc(F)cc3Cl)N=C(c3nccs3)N2C1)N1C[C@@H](O)[C@@H](O)C1` [Example 226], for which the EC50 lay in the range of 0.1 to 0.4 µM.

As to `O=C(N[C@H]1CC2=C(c3ccn(C(F)F)n3)[C@H](c3ccc(F)cc3Cl)N=C(c3nccs3)N2C1)c1cccnc1` [Example 227], the EC50 is less than 0.1 µM.

As to `O=C(N[C@H]1CC2=C(c3ccn(C(F)F)n3)[C@H](c3ccc(F)cc3Cl)N=C(c3nccs3)N2C1)N1CCN(S(=O)(=O)c2ccccc2)CC1` [Example 228], the EC50 was more than 0.4 µM.

With `O=C(N[C@H]1CC2=C(c3ccn(C(F)F)n3)[C@H](c3ccc(F)cc3Cl)N=C(c3nccs3)N2C1)N1CCC[C@H](O)C1` [Example 229], the EC50 was in the range of 0.1 to 0.4 µM.

Consider `O=C(N[C@H]1CC2=C(c3ccn(C(F)F)n3)[C@H](c3ccc(F)cc3Cl)N=C(c3nccs3)N2C1)N1C[C@H](O)[C@@H](O)C1` [Example 230], for which the EC50 lay in the range of 0.1 to 0.4 µM.

Take `O=C(N[C@H]1CC2=C(c3ccn(C(F)F)n3)[C@H](c3ccc(F)cc3Cl)N=C(c3nccs3)N2C1)c1ccncc1` [Example 231]: the concentration giving a half-maximal response (EC50) was less than 0.1 µM.

As to `O=C(N[C@H]1CC2=C(c3ccn(C(F)F)n3)[C@H](c3ccc(F)cc3Cl)N=C(c3nccs3)N2C1)c1ncccn1` [Example 232], the EC50 was less than 0.1 µM.

In the case of `O=C(N[C@H]1CC2=C(c3ccn(C(F)F)n3)[C@H](c3ccc(F)cc3Cl)N=C(c3nccs3)N2C1)c1cnccn1` [Example 233], the concentration giving a half-maximal response (EC50) was less than 0.1 µM.

As for `O=C(N[C@H]1CC2=C(c3ccn(C(F)F)n3)[C@H](c3ccc(F)cc3Cl)N=C(c3nccs3)N2C1)c1ncc[nH]1` [Example 234], the EC50 is less than 0.1 µM.

With `O=C(N[C@H]1CC2=C(c3ccn(C(F)F)n3)[C@H](c3ccc(F)cc3Cl)N=C(c3nccs3)N2C1)C1CC1` [Example 236], the EC50 was less than 0.1 µM.

Turning to `O=C(N[C@H]1CC2=C(c3ccn(C(F)F)n3)[C@H](c3ccc(F)cc3Cl)N=C(c3nccs3)N2C1)C1CCC1` [Example 237], the EC50 lay within 0.1 to 0.4 µM.

Turning to `O=C(N[C@H]1CC2=C(c3ccn(C(F)F)n3)[C@H](c3ccc(F)cc3Cl)N=C(c3nccs3)N2C1)C1CCCC1` [Example 238], the EC50 lay in the range of 0.1 to 0.4 µM.

Consider `O=C(N[C@H]1CC2=C(c3ccn(C(F)F)n3)[C@H](c3ccc(F)cc3Cl)N=C(c3nccs3)N2C1)C1CCCCC1` [Example 239], for which the EC50 was in the range of 0.1 to 0.4 µM.

On to `O=S(=O)(N[C@H]1CC2=C(c3ccn(C(F)F)n3)[C@H](c3ccc(F)cc3Cl)N=C(c3nccs3)N2C1)C1CCCCC1` [Example 240], for which the concentration giving a half-maximal response (EC50) was less than 0.1 µM.

For the compound `O=C(N[C@H]1CC2=C(c3ccn(C(F)F)n3)[C@H](c3ccc(F)cc3Cl)N=C(c3nccs3)N2C1)N1CCC(O)(CO)CC1` [Example 241], the EC50 was in the range of 0.1 to 0.4 µM.

For `O=C(N[C@H]1CC2=C(c3ccn(C(F)F)n3)[C@H](c3ccc(F)cc3Cl)N=C(c3nccs3)N2C1)N1CCC(O)(c2ccccc2)CC1` [Example 242], the EC50 fell in the range of 0.1 to 0.4 µM.

In the case of `O=C(N[C@H]1CC2=C(c3ccn(C(F)F)n3)[C@H](c3ccc(F)cc3Cl)N=C(c3nccs3)N2C1)N1CCC(O)(c2ccccn2)CC1` [Example 243], the EC50 is 0.1 to 0.4 µM.

On to `O=C(N[C@H]1CC2=C(c3ccn(C(F)F)n3)[C@H](c3ccc(F)cc3Cl)N=C(c3nccs3)N2C1)N1CCC(O)(c2nccs2)CC1` [Example 244], for which the EC50 fell in the range of 0.1 to 0.4 µM.

Turning to `O=C(N[C@H]1CC2=C(c3ccn(C(F)F)n3)[C@H](c3ccc(F)cc3Cl)N=C(c3nccs3)N2C1)N1CCC(O)(c2ncco2)CC1` [Example 245], the EC50 lay within 0.1 to 0.4 µM.

As to `O=C(N[C@H]1CC2=C(c3ccn(C(F)F)n3)[C@H](c3ccc(F)cc3Cl)N=C(c3nccs3)N2C1)N1CCC(O)(c2ncc(C3CC3)s2)CC1` [Example 246], the EC50 lay in the range of 0.1 to 0.4 µM.

For the compound `O=C(N[C@H]1CC2=C(c3ccn(C(F)F)n3)[C@H](c3ccc(F)cc3Cl)N=C(c3nccs3)N2C1)N1CCC(O)(c2ncc[nH]2)CC1` [Example 247], the EC50 is more than 0.4 µM.

The assay is the same for the next values; noted with them: Hepatitis B virus, HePAD38, 120 h, read-out: HepAD38 EC50 (μM).
Take `O=C(N[C@H]1CC2=C(c3ccn(C(F)F)n3)[C@H](c3ccc(F)cc3Cl)N=C(c3nccs3)N2C1)Oc1ccccc1` [Example 200]: the EC50 is more than 0.4 µM.
